Test results from patent US4349545A, “Novel erythromycin a derivatives” (Roussel Uclaf, priority 1980, dated 1982).
Values after ≈ are worked out from the molar mass of the structure shown.

Legend:
[1] = system: Staphylococcus aureus UC 1128; assay: serial dilution liquid medium MIC, Staphylococcus aureus UC 1128 pen-resistant; assay type: cell-based; settings: UC1128; Staphylococcus aureus UC 1128 pen-resistant; 24 hours at 37° C.; read-out: minimum inhibiting concentration (MIC)
Method: (§1) The method was a serial dilution of liquid medium test wherein a series of tubes were prepared containing the same amount of sterile nutritive medium and increasing amounts of the test product was distributed in each tube. The tubes were then seeded with a bacterial strain and incubated for 24 hours in an oven at 37° C. The degree of inhibition was determined by transillumination to determine the minimum inhibiting concentration (MIC) express in μg/ml and the results are reported in the following Tables.

[2] = system: Staphylococcus aureus exp. n° 54 146; assay: serial dilution liquid medium MIC, Staphylococcus aureus exp. n° 54 146; assay type: cell-based; settings: Staphylococcus aureus exp. 54 146; 24 hours at 37° C.; read-out: minimum inhibiting concentration (MIC)
Method: as §1

[3] = system: Streptococcus pyogenes A 561; assay: serial dilution liquid medium MIC, Streptococcus pyogenes A 561; assay type: cell-based; settings: A561, 24 hours at 37° C., read-out: minimum inhibiting concentration (MIC)
Method: as §1

[4] = system: Streptococcus faecalis 5432; assay: serial dilution liquid medium MIC, Streptococcus faecalis 5432; assay type: cell-based; settings: Enterococcus faecalis, 24 hours at 37° C., read-out: minimum inhibiting concentration (MIC)
Method: as §1

[5] = system: Streptococcus faecalis 99 F 74; assay: serial dilution liquid medium MIC, Streptococcus faecalis 99 F 74; assay type: cell-based; settings: Enterococcus faecalis, 99F74, 24 hours at 37° C., read-out: minimum inhibiting concentration (MIC)
Method: as §1

[6] = system: Staphylococcus aureus 1061; assay: serial dilution liquid medium MIC, Staphylococcus aureus 1061 pen-sensibles; assay type: cell-based; settings: 24 hours at 37° C., read-out: minimum inhibiting concentration (MIC)
Method: as §1

[7] = system: Streptococcus faecalis 5435; assay: serial dilution liquid medium MIC, Streptococcus faecalis 5435; assay type: cell-based; settings: Enterococcus faecalis, 24 hours at 37° C., read-out: minimum inhibiting concentration (MIC)
Method: as §1

[8] = system: Staphylococcus aureus No. 54,146; assay: In vivo activity in mice experimentally infected with Staphylococcus aureus No. 54,146; settings: groups of 10 mice
Method: The test was effected with the compounds of the invention and erythromycin as a reference on groups of 10 mice weighing about 21 g experimentally infected with Staphylococcus aureus No. 54,146 by intraperitoneal administration of 0.5 ml of a 22 hour culture of the said organism in bouillon with a pH of 7 diluted to 1/6 with physiological water. The test compounds were orally administrated to the mice 1,5 and 24 hours after the infection and the mortality on the 8th day was determined.

[9] = dose 0,5mg oral, 1,5 and 24 hours after infection
[10] = dose 0,25mg oral, 1,5 and 24 hours after infection
[11] = dose 0,75mg oral, 1,5 and 24 hours after infection

MIC [1] [µg/mL]	MIC [2] [µg/mL]	MIC [3] [µg/mL]	MIC [4] [µg/mL]	MIC [5] [µg/mL]	MIC [6] [µg/mL]	MIC [7] [µg/mL]	Compound	No. of mice living on the 8th day [8, 9] [mice]	No. of mice living on the 8th day [8, 10] [mice]	No. of mice living on the 8th day [8, 11] [mice]	No. of mice living on the 8th day ([8]; dose 1mg oral, 1,5 and 24 hours after infection) [mice]	No. of mice living on the 8th day ([8]; dose 2mg oral, 1,5 and 24 hours after infection) [mice]	No. of mice living on the 8th day ([8]; dose 1,5mg oral, 1,5 and 24 hours after infection) [mice]
1 (≈ 1.14 µM)	0.6 (≈ 0.683 µM)	0.02 (≈ 0.0228 µM)	0.1 (≈ 0.114 µM)	0.1 (≈ 0.114 µM)	0.4 (≈ 0.456 µM)	0.2 (≈ 0.228 µM)	CC[C@H]1OC(=O)[C@H](C)[C@@H](O[C@H]2C[C@@](C)(OC)[C@@H](O)[C@H](C)O2)[C@H](C)[C@@H](O[C@@H]2O[C@H](C)C[C@H](N(C)C)[C@H]2O)[C@](C)(O)C[C@@H](C)C(=NOCOCCN(CC)CC)[C@H](C)[C@@H](O)[C@]1(C)O [Example 23, 9-[0-{(2-diethylaminoethoxy)-methyl}-oxime] of erythromycin]						
0.6 (≈ 0.706 µM)	0.6 (≈ 0.706 µM)	0.05 (≈ 0.0588 µM)	0.4 (≈ 0.471 µM)	0.1 (≈ 0.118 µM)	0.4 (≈ 0.471 µM)	1 (≈ 1.18 µM)	CC[C@H]1OC(=O)[C@H](C)[C@@H](O[C@H]2C[C@@](C)(OC)[C@@H](O)[C@H](C)O2)[C@H](C)[C@@H](O[C@@H]2O[C@H](C)C[C@H](N(C)C)[C@H]2O)[C@](C)(O)C[C@@H](C)C(=NOCC(O)CN(C)C)[C@H](C)[C@@H](O)[C@]1(C)O (some centres unmarked) [Example 48, 9-[0-(3-dimethylamino-2-hydroxy-propyl)-oxime] of erythromycin]						
0.4 (≈ 0.497 µM)	0.4 (≈ 0.497 µM)	0.05 (≈ 0.0621 µM)	0.2 (≈ 0.248 µM)	0.2 (≈ 0.248 µM)	0.2 (≈ 0.248 µM)	0.2 (≈ 0.248 µM)	CC[C@H]1OC(=O)[C@H](C)[C@@H](O[C@H]2C[C@@](C)(OC)[C@@H](O)[C@H](C)O2)[C@H](C)[C@@H](O[C@@H]2O[C@H](C)C[C@H](N(C)C)[C@H]2O)[C@](C)(O)C[C@@H](C)C(=NOCC2CO2)[C@H](C)[C@@H](O)[C@]1(C)O (some centres unmarked) [Example 47, 9-[0-(oxiramylmethyl)-oxime] of erythromycin]						
0.6 (≈ 0.719 µM)	0.4 (≈ 0.48 µM)	0.01 (≈ 0.012 µM)	0.05 (≈ 0.0599 µM)	≤ 0.02	0.3 (≈ 0.36 µM)	0.1 (≈ 0.12 µM)	CC[C@H]1OC(=O)[C@H](C)[C@@H](O[C@H]2C[C@@](C)(OC)[C@@H](O)[C@H](C)O2)[C@H](C)[C@@H](O[C@@H]2O[C@H](C)C[C@H](N(C)C)[C@H]2O)[C@](C)(O)C[C@@H](C)C(=NOCCNC(C)C)[C@H](C)[C@@H](O)[C@]1(C)O [Example 39, 9-[O-(2-isopropylamino)-oxime] of erythromycin]						
1 (≈ 1.18 µM)	1 (≈ 1.18 µM)	0.02 (≈ 0.0236 µM)	0.1 (≈ 0.118 µM)	0.1 (≈ 0.118 µM)	0.5 (≈ 0.59 µM)		CC[C@H]1OC(=O)[C@H](C)[C@@H](O[C@H]2C[C@@](C)(OC)[C@@H](O)[C@H](C)O2)[C@H](C)[C@@H](O[C@@H]2O[C@H](C)C[C@H](N(C)C)[C@H]2O)[C@](C)(O)C[C@@H](C)C(=NOCCN(CC)CC)[C@H](C)[C@@H](O)[C@]1(C)O [Example 31, 9-[0-(2-diethylaminoethyl)-oxime] of erythromycin]	10	4				
0.4 (≈ 0.499 µM)	0.4 (≈ 0.499 µM)	0.02 (≈ 0.0249 µM)	0.1 (≈ 0.125 µM)	0.05 (≈ 0.0623 µM)	0.2 (≈ 0.249 µM)	0.4 (≈ 0.499 µM)	CC[C@H]1OC(=O)[C@H](C)[C@@H](O[C@H]2C[C@@](C)(OC)[C@@H](O)[C@H](C)O2)[C@H](C)[C@@H](O[C@@H]2O[C@H](C)C[C@H](N(C)C)[C@H]2O)[C@](C)(O)C[C@@H](C)C(=NOCCC#N)[C@H](C)[C@@H](O)[C@]1(C)O [Example 14, 9-[0-(2-cyanoethyl)-oxime] of erythromycin]						
1 (≈ 1.26 µM)	1 (≈ 1.26 µM)	≤ 0.01	0.4 (≈ 0.505 µM)	0.1 (≈ 0.126 µM)	0.6 (≈ 0.758 µM)	0.2 (≈ 0.253 µM)	CC[C@H]1OC(=O)[C@H](C)[C@@H](O[C@H]2C[C@@](C)(OC)[C@@H](O)[C@H](C)O2)[C@H](C)[C@@H](O[C@@H]2O[C@H](C)C[C@H](N(C)C)[C@H]2O)[C@](C)(O)C[C@@H](C)C(=NOCCN)[C@H](C)[C@@H](O)[C@]1(C)O [Example 45, 9-[O-(2-aminoethyl)-oxime] of erythromycin]						
1 (≈ 1.18 µM)	0.6 (≈ 0.709 µM)	≤ 0.01	0.05 (≈ 0.0591 µM)	0.1 (≈ 0.118 µM)	0.4 (≈ 0.473 µM)	0.2 (≈ 0.236 µM)	CC[C@H]1OC(=O)[C@H](C)[C@@H](O[C@H]2C[C@@](C)(OC)[C@@H](O)[C@H](C)O2)[C@H](C)[C@@H](O[C@@H]2O[C@H](C)C[C@H](N(C)C)[C@H]2O)[C@](C)(O)C[C@@H](C)C(=NOCCN2CCCC2)[C@H](C)[C@@H](O)[C@]1(C)O [Example 32, 9-[0-(2-{pyrrolidin-1-yl}-ethyl)-oxime] of erythromycin]						
0.6 (≈ 0.706 µM)	0.4 (≈ 0.471 µM)	≤ 0.01	0.05 (≈ 0.0588 µM)	0.05 (≈ 0.0588 µM)	0.4 (≈ 0.471 µM)	0.2 (≈ 0.235 µM)	CC[C@H]1OC(=O)[C@H](C)[C@@H](O[C@H]2C[C@@](C)(OC)[C@@H](O)[C@H](C)O2)[C@H](C)[C@@H](O[C@@H]2O[C@H](C)C[C@H](N(C)C)[C@H]2O)[C@](C)(O)C[C@@H](C)C(=NOCOCCN(C)C)[C@H](C)[C@@H](O)[C@]1(C)O [Example 22, 9-[0-{(2-dimethylaminoethoxy)-methyl}-oxime] of erythromycin]						
0.6 (≈ 0.717 µM)	0.4 (≈ 0.478 µM)	0.02 (≈ 0.0239 µM)	0.01 (≈ 0.0119 µM)	0.1 (≈ 0.119 µM)	0.4 (≈ 0.478 µM)	0.4 (≈ 0.478 µM)	CCSCCON=C1[C@H](C)C[C@@](C)(O)[C@H](O[C@@H]2O[C@H](C)C[C@H](N(C)C)[C@H]2O)[C@@H](C)[C@H](O[C@H]2C[C@@](C)(OC)[C@@H](O)[C@H](C)O2)[C@@H](C)C(=O)O[C@H](CC)[C@@](C)(O)[C@H](O)[C@H]1C [Example 13, 9-[0-(2-ethylthioethyl)-oxime] of erythromycin]						
0.2 (≈ 0.238 µM)	0.2 (≈ 0.238 µM)	0.02 (≈ 0.0238 µM)	0.1 (≈ 0.119 µM)	0.1 (≈ 0.119 µM)	0.2 (≈ 0.238 µM)		CC[C@H]1OC(=O)[C@H](C)[C@@H](O[C@H]2C[C@@](C)(OC)[C@@H](O)[C@H](C)O2)[C@H](C)[C@@H](O[C@@H]2O[C@H](C)C[C@H](N(C)C)[C@H]2O)[C@](C)(O)C[C@@H](C)C(=NOCOCCCl)[C@H](C)[C@@H](O)[C@]1(C)O [Example 21, 9-[0-{(2-chloroethoxy)-methyl}-oxime] of erythromycin]	6	0	10			
							CC[C@H]1OC(=O)[C@H](C)[C@@H](O[C@H]2C[C@@](C)(OC)[C@@H](O)[C@H](C)O2)[C@H](C)[C@@H](O[C@@H]2O[C@H](C)C[C@H](N(C)C)[C@H]2O)[C@](C)(O)C[C@@H](C)C(=O)[C@H](C)[C@@H](O)[C@]1(C)O [Erythromycin, erythromycin]			5	9	10	9
1 (≈ 1.14 µM)	1 (≈ 1.14 µM)	0.05 (≈ 0.0571 µM)	0.2 (≈ 0.228 µM)	0.2 (≈ 0.228 µM)	0.5 (≈ 0.571 µM)		CC[C@H]1OC(=O)[C@H](C)[C@@H](O[C@H]2C[C@@](C)(OC)[C@@H](O)[C@H](C)O2)[C@H](C)[C@@H](O[C@@H]2O[C@H](C)C[C@H](N(C)C)[C@H]2O)[C@](C)(O)C[C@@H](C)C(=NOCCN(C(C)C)C(C)C)[C@H](C)[C@@H](O)[C@]1(C)O [Example 41, 9-[O-(2-disopropylamino-ethyl)-oxime] of erythromycin]	10	9				
